≈ marks a conversion by molar mass, not a printed value. Where two headings read alike, the source gives them in different places. Positions of bridges follow the written chain, without caps; N, C: chain ends. Residues, ends and D or L forms follow the SMILES beside them.
Tests used:
M. luteus B-1314 = assay type: cell-based, Micrococcus luteus; details: B-1314, 24 h
Procedure: (§1) The antimicrobial activity of the peptides was determined using two-fold serial dilutions in sterile 96-well flat-bottom polystyrene microplates (Eppendorf, Hamburg, Germany) (Cat. No. 0030730011), as previously described. The following strains of bacteria were used: E. coli ATCC 25922, E. coli ML35p (ATCC collection), E. coli BW 25113 (Keio collection), Pseudomonas aeruginosa PAO1 (ATCC collection), P. aeruginosa ATCC 27853, Klebsiella pneumoniae ATCC 700603, Staphylococcus aureus 209P (ATCC collection), S. aureus ATCC 29213, and Micrococcus luteus B-1314 (VKM collection). Acinetobacter baumannii (strain XDR CI 2675) was provided by the I.M. Sechenov First Moscow State Medical University hospital. After a 24 h incubation period, the metabolic activity of the bacteria was assessed by adding 20 µL of a redox indicator, resazurin (Sigma-Aldrich, St. Louis, MO, USA), at a concentration of 0.1 mg/mL, to the wells. The plate was then incubated for a further two hours. The minimum inhibitory concentration (MIC) was determined as the lowest concentration of the peptide at which no color change in the resazurin indicator was observed. The results were presented as median values, which were determined based on at least three independent experiments carried out in triplicate.

P. aeruginosa PAO1 = assay type: cell-based, Pseudomonas aeruginosa; details: PAO1, 24 h
Procedure: as §1

P. aeruginosa ATCC 27853 = assay type: cell-based, Pseudomonas aeruginosa; details: ATCC 27853, 24 h
Procedure: as §1

S. aureus ATCC 29213 = assay type: cell-based, Staphylococcus aureus; details: ATCC 29213, 24 h
Procedure: as §1

S. aureus 209P = assay type: cell-based, Staphylococcus aureus; details: 24 h
Procedure: as §1

[1] = system: human keratinocyte cell line (HaCaT); experiment: Cytotoxicity MTT assay; assay type: cell-based; details: 18 h, 128
Procedure: In order to evaluate the cytotoxicity of the peptides against a human keratinocyte cell line (HaCaT, Cat. No. 300493) (Cell Lines Service, Köln, Germany), the colorimetric 3-(4,5-dimethylthiazol-2-yl)-2,5-diphenyltetrazolium bromide (MTT) dye reduction assay was performed, as described in a previous publication. Wells containing no peptide were used as a 100% survival control. Each peptide was tested in two separate experiments to ensure the reliability of the results.

[2] = system: freshly isolated human erythrocytes (hRBCs); experiment: Hemolysis assay (hemoglobin release); assay type: cell-based; details: red cells of human, 64
Description: To assess the hemolytic activity of the compounds, freshly isolated human erythrocytes (hRBCs) were used according to the methodology described in a previous study. Melittin was used as a positive peptide control that induces significant hemolysis. Isotonic phosphate buffer (PBS) served as a negative control, while 0.1% Triton X-100 solution was used as a control for complete hemolysis.

[3] = system: K. pneumoniae ATCC 700603; assay type: cell-based, Klebsiella pneumoniae; details: ATCC 700603, 24 h
Procedure: as §1

E. coli ML35p = assay type: cell-based
Procedure: as §1

[4] = system: Acinetobacter baumannii (strain XDR CI 2675); assay type: cell-based
Procedure: as §1

E. coli ATCC 25922 = assay type: cell-based; details: ATCC 25922, 24 h
Procedure: as §1

E. coli BW 25113 = assay type: cell-based; details: two-fold serial dilutions, 24 h incubation, resazurin read-out; median of at least three independent experiments in triplicate
Procedure: as §1

all the test strains = assay type: cell-based; details: geometric mean over the 10 test strains
Procedure: as §1

[5] = two-fold serial dilutions, 24 h incubation, resazurin read-out, median of at least three independent experiments in triplicate
[6] = strain XDR CI 2675, two-fold serial dilutions, 24 h incubation, resazurin read-out, median of at least three independent experiments in triplicate

Compound | MIC, M. luteus B-1314 (M. luteus B-1314) [µM] | MIC, P. aeruginosa PAO1 (P. aeruginosa PAO1) [µM] | MIC, P. aeruginosa ATCC 27853 (P. aeruginosa ATCC 27853) [µM] | MIC, S. aureus ATCC 29213 (S. aureus ATCC 29213) [µM] | MIC, S. aureus 209P (S. aureus 209P) [µM] | Cell Viability, % (128 μM) [1] | Hemolytic activity, % (64 μM) [2] | MIC, K. pneumoniae ATCC 700603 [3] [µM] | MIC, E. coli ML35p (E. coli ML35p; [5]) [µM] | MIC, A. baumannii [4, 6] [µM] | MIC, E. coli ATCC 25922 (E. coli ATCC 25922) [µM] | MIC, E. coli BW 25113 (E. coli BW 25113) [µM] | MIC (GM), geometric mean of the peptide's MICs against all the test strains (all the test strains) [µM] | MIC, E. coli ML35p (E. coli ML35p; ML35p, 24 h) [µM] | MIC, A. baumannii ([4]; strain XDR CI 2675, 24 h) [µM]
CC(C)[C@H](NC(=O)[C@@H]1CSSC[C@H](NC(=O)[C@H](CCCNC(=N)N)NC(=O)[C@H](CCCNC(=N)N)NC(=O)CNC(=O)CNC(=O)[C@@H](N)CCCNC(=N)N)C(=O)N[C@@H](Cc2ccc(O)cc2)C(=O)N[C@H]2CSSC[C@H](NC(=O)[C@H](Cc3ccccc3)NC(=O)[C@H](CCCNC(=N)N)NC(=O)[C@H](CCCNC(=N)N)NC(=O)[C@H](CCCNC(=N)N)NC2=O)C(=O)N[C@@H](C(C)C)C(=O)N1)C(=O)NCC(=O)N[C@@H](CCCNC(=N)N)C(=O)O [[L5R]] (H-RGGRRCYCRRRFCVCVGR-OH; disulfide 6-15, 8-13; N-terminus and C-terminus assumed) | 1 (≈ 2.2 µg/mL) | 1 (≈ 2.2 µg/mL) | 1 (≈ 2.2 µg/mL) | 4 (≈ 8.8 µg/mL) | 4 (≈ 8.8 µg/mL) | 7.7 (± 4.64) % | 14.1 (±2.13) % | 8 (≈ 17.6 µg/mL) | 0.5 (≈ 1.1 µg/mL) | 0.5 (≈ 1.1 µg/mL) | 1 (≈ 2.2 µg/mL) | 0.25 (≈ 0.55 µg/mL) | 1.2 |  | 
CC(C)[C@@H]1NC(=O)[C@@H]2CSSC[C@H](NC(=O)[C@H](Cc3ccc(O)cc3)NC(=O)[C@@H](NC(=O)[C@H](C)NC(=O)[C@H](CCCNC(=N)N)NC(=O)CNC(=O)CNC(=O)[C@@H](N)CCCNC(=N)N)CSSC[C@@H](C(=O)N[C@@H](CCCNC(=N)N)C(=O)NCC(=O)N[C@@H](CCCNC(=N)N)C(=O)O)NC1=O)C(=O)N[C@@H](CCCNC(=N)N)C(=O)N[C@@H](CCCNC(=N)N)C(=O)N[C@@H](CCCNC(=N)N)C(=O)N[C@@H](Cc1ccccc1)C(=O)N2 [[L5A,V16R]] (H-RGGRACYCRRRFCVCRGR-OH; disulfide 6-15, 8-13; N-terminus and C-terminus assumed) | 4 (≈ 8.69 µg/mL) | 8 (≈ 17.4 µg/mL) | 4 (≈ 8.69 µg/mL) | 32 (≈ 69.5 µg/mL) | 32 (≈ 69.5 µg/mL) | 94.1 (± 3.51) % | 1.0 (±0.01) % | 32 (≈ 69.5 µg/mL) |  |  | 2 (≈ 4.34 µg/mL) | 2 (≈ 4.34 µg/mL) | 4.9 | 1 (≈ 2.17 µg/mL) | 0.5 (≈ 1.09 µg/mL)
CC(C)[C@H](NC(=O)[C@@H]1CSSC[C@H](NC(=O)[C@H](C)NC(=O)[C@H](CCCNC(=N)N)NC(=O)CNC(=O)CNC(=O)[C@@H](N)CCCNC(=N)N)C(=O)N[C@@H](Cc2ccc(O)cc2)C(=O)N[C@H]2CSSC[C@H](NC(=O)[C@H](Cc3ccccc3)NC(=O)[C@H](CCCNC(=N)N)NC(=O)[C@H](CCCNC(=N)N)NC(=O)[C@H](CCCNC(=N)N)NC2=O)C(=O)N[C@@H](C(C)C)C(=O)N1)C(=O)NCC(=O)N[C@@H](CCCNC(=N)N)C(=O)O [[L5A]] (H-RGGRACYCRRRFCVCVGR-OH; disulfide 6-15, 8-13; N-terminus and C-terminus assumed) | 0.5 (≈ 1.06 µg/mL) | 0.5 (≈ 1.06 µg/mL) | 0.25 (≈ 0.529 µg/mL) | 1 (≈ 2.11 µg/mL) | 1 (≈ 2.11 µg/mL) | 10.0 (±3.27) % | 40.3 (±6.95) % | 1 (≈ 2.11 µg/mL) | 0.25 (≈ 0.529 µg/mL) | 0.25 (≈ 0.529 µg/mL) | 0.5 (≈ 1.06 µg/mL) | 0.125 (≈ 0.264 µg/mL) | 0.4 |  | 

Source: publication PMC10458893, “Design of Protegrin-1 Analogs with Improved Antibacterial Selectivity” (Pharmaceutics, 2023)
